From patent EP0203488A2, “7-Azolyl-1-cyclopropyl-1,4-dihydro-4-oxo-3-quinoline carboxylic acids and 1,8-naphthyridine carboxylic acids, process for their preparation and bactericidal agents containing them” (BAYER AG, priority 1985, dated 1986)
In brackets after ≈: the same amount, converted by molar mass.

How the values were obtained:
Experiment in all cases: Agar dilution test (Isosensitest medium), MIC
Type in all cases: cell-based
[1] = tested on: Klebsiella pneum. 63; details: Agardilutionstest / Isosensitestmedium, read-out: MHK-Werte
Text: (§1) In der nachstehenden Tabelle sind die MHK-Werte einiger der erfindungsgemäßen Verbindungen im Vergleich zu Ciprofloxacin angegeben.

[2] = tested on: Staph. aur. FK 422; details: Agardilutionstest / Isosensitestmedium, read-out: MHK-Werte
Text: as §1

[3] = tested on: Klebsiella pneum. 8085; details: Agardilutionstest / Isosensitestmedium, read-out: MHK-Werte
Text: as §1

[4] = tested on: Streptococcus faec.27101; details: Agardilutionstest / Isosensitestmedium, read-out: MHK-Werte
Text: as §1

[5] = tested on: Proteus vulg. 1017; details: Agardilutionstest / Isosensitestmedium, read-out: MHK-Werte
Text: as §1

[6] = tested on: E.coli Neum.; details: Escherichia coli, Agardilutionstest / Isosensitestmedium, read-out: MHK-Werte
Text: as §1

[7] = tested on: Staph. aur. 133; details: Agardilutionstest / Isosensitestmedium, read-out: MHK-Werte
Text: as §1

[8] = tested on: Staph. aur. 1756; details: Agardilutionstest / Isosensitestmedium, read-out: MHK-Werte
Text: as §1

[9] = tested on: Pseudom.aerug.Ellsw.; details: Agardilutionstest / Isosensitestmedium, read-out: MHK-Werte
Text: as §1

[10] = tested on: E.coli T 7; details: Escherichia coli, T7, Agardilutionstest / Isosensitestmedium, read-out: MHK-Werte
Text: as §1

SMILES | MIC [1] [µg/mL] | MIC [2] [µg/mL] | MIC [3] [µg/mL] | MIC [4] [µg/mL] | MIC [5] [µg/mL] | MIC [6] [µg/mL] | MIC [7] [µg/mL] | MIC [8] [µg/mL] | MIC [9] [µg/mL] | MIC [10] [µg/mL]
O=C(O)c1cn(C2CC2)c2c(F)c(-n3ccnc3)c(F)cc2c1=O [Beispiel 21, 1-Cyclopropyl-6,8-difluor-1,4-dihydro-7-(1-imidazolyl)-4-oxo-3-chinolincarbonsäure] | 0.06 (≈ 0.181 µM) | 0.125 (≈ 0.377 µM) | 0.03 (≈ 0.0906 µM) | 0.5 (≈ 1.51 µM) | 0.125 (≈ 0.377 µM) | 0.03 (≈ 0.0906 µM) | 0.125 (≈ 0.377 µM) | 0.125 (≈ 0.377 µM) | 0.25 (≈ 0.755 µM) | 0.03 (≈ 0.0906 µM)
O=C(O)c1cn(C2CC2)c2cc(-n3cccc3)c(F)cc2c1=O [Beispiel 1, 1-Cyclopropyl-6-fluor-1,4-dihydro-4-oxo-7-(1-pyrrolyl)-3-chino-lincarbonsäure] | 0.125 (≈ 0.4 µM) | 0.03 (≈ 0.0961 µM) | 0.06 (≈ 0.192 µM) | 0.25 (≈ 0.801 µM) | 0.25 (≈ 0.801 µM) | 0.06 (≈ 0.192 µM) | 0.03 (≈ 0.0961 µM) | 0.03 (≈ 0.0961 µM) | 0.5 (≈ 1.6 µM) | 0.06 (≈ 0.192 µM)
CCn1cc(C(=O)O)c(=O)c2cc(F)c(-n3ccnc3)c(F)c21 [EP 115 049, 1-Ethyl-6,8-difluor-1,4-dihydro-7-(1-imidazolyl)-4-oxo-3-chinolincarbonsäure, reference compound] | 0.5 (≈ 1.57 µM) | 0.5 (≈ 1.57 µM) | 0.25 (≈ 0.783 µM) | 2 (≈ 6.26 µM) | 0.5 (≈ 1.57 µM) | 0.125 (≈ 0.392 µM) | 1 (≈ 3.13 µM) | 1 (≈ 3.13 µM) | 1 (≈ 3.13 µM) | 0.125 (≈ 0.392 µM)
O=C(O)c1cn(C2CC2)c2c(Cl)c(-n3ccnc3)c(F)cc2c1=O [Beispiel 20, 8-Chlor-1-cyclopropyl-6-fluor-1,4-dihydro-7-(1-imidazolyl)-4-oxo-3-chinolincarbonsäure] | 0.25 (≈ 0.719 µM) | 0.03 (≈ 0.0863 µM) | 0.03 (≈ 0.0863 µM) | 0.125 (≈ 0.359 µM) | 0.25 (≈ 0.719 µM) | 0.03 (≈ 0.0863 µM) | 0.03 (≈ 0.0863 µM) | 0.03 (≈ 0.0863 µM) | 0.5 (≈ 1.44 µM) | 0.03 (≈ 0.0863 µM)
O=C(O)c1cn(C2CC2)c2c(F)c(-n3cccc3)c(F)cc2c1=O [Beispiel 2, 1-Cyclopropyl-6,8-difluor-1,4-dihydro-4-oxo-7-(1-pyrrolyl)-3-chinolincarbon-säure] | 0.5 (≈ 1.51 µM) | 0.06 (≈ 0.182 µM) | 0.125 (≈ 0.378 µM) | 0.25 (≈ 0.757 µM) | 0.5 (≈ 1.51 µM) | 0.25 (≈ 0.757 µM) | 0.06 (≈ 0.182 µM) | 0.06 (≈ 0.182 µM) | 1 (≈ 3.03 µM) | 0.125 (≈ 0.378 µM)
